The experiment deals with T1, AMPK protein (recombinant α1β1γ2) (Homo sapiens, UniProt Q13131+Q9Y478).
T1 construct: made in house; host or cells: E. coli
T1 sequence (Q13131 whole entry): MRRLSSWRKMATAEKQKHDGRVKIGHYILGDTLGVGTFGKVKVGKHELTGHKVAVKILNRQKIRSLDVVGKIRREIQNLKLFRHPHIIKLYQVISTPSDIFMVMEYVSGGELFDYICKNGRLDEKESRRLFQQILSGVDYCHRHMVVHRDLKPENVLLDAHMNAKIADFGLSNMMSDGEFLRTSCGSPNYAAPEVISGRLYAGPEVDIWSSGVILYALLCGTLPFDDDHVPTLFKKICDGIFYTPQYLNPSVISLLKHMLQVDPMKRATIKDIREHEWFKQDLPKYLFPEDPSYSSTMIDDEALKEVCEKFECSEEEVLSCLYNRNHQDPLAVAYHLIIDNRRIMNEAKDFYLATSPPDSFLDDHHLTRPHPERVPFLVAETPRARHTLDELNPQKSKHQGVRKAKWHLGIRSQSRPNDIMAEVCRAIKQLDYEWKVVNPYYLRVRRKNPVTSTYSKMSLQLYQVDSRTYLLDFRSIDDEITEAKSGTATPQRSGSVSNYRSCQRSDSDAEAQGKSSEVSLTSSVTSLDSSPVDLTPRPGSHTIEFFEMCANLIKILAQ
T1 sequence (Q9Y478 whole entry): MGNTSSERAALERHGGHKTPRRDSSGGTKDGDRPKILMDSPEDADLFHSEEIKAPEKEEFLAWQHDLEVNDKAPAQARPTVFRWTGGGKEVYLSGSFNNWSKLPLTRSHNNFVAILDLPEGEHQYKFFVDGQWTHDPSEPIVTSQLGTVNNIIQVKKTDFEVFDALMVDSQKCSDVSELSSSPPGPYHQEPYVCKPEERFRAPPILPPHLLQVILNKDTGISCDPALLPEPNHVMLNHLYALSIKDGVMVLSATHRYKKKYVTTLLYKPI
T1 sequence (Q9UGJ0 whole entry partner): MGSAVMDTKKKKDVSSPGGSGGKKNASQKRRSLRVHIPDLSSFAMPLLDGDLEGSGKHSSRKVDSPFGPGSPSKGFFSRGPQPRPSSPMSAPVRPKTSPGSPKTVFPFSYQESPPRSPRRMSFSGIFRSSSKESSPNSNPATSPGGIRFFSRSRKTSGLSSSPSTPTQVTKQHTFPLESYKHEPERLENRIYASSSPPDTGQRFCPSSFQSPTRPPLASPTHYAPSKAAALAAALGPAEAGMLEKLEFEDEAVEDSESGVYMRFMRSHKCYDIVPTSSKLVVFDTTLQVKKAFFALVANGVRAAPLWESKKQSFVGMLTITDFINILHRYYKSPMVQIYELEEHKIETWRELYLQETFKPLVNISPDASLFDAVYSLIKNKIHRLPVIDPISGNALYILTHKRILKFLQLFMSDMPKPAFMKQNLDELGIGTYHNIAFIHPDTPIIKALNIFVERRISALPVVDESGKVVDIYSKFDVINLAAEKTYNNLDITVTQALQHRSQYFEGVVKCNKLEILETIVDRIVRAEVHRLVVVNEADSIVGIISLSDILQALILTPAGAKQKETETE
As to the kind of experiment: AMPK enzymatic activity (Delfia, AMARA peptide). Conditions: compound 30 μM vs AMP 30 μM; 125 μM ATP; 30 min room temperature; ratio 90% or higher = direct activator. The experiment is classed as biochemical. On the procedure: The following biological test allows the determination of the efficacy of such compounds of formula (I) onto AMPK protein (recombinant α1β1γ2).
Human recombinant AMPK enzyme was expressed in E. Coli and was reactivated in vitro by LKB1 prior to enzyme activity determination.
AMPK enzyme activities were assayed by using A Delfia technology. AMPK enzyme activities were carried out in microtiter plates (50 mM Hepes buffer, pH 7.4 with 125 μM ATP respectively) in the presence of a synthetic peptide substrate (AMARAASAAALARRR, the “AMARA” peptide) and activators in serial dilutions. Reactions were initiated by the addition of AMPK (50-100 ng). Following mixing, the plates were incubated for 30 min at room temperature. Enzyme activity was assayed by using an anti-phosphoserine antibody to measure the quantity of phosphate incorporated into the AMARAA.
Ratio between the % of control (basal activity) of compound of formula (I) at 30 μM and the % of control (basal activity) of AMP (natural substrate) at 30 μM. Compounds of formula (I) in the table II are considered as direct activator of AMPK if the ratio is 90% or higher.
In the case of `O=c1[nH]c2sc(Cl)c(-c3ccc(-c4ccccc4O)cc3)c2c(O)c1-c1ccccc1` [Compound 5, 2-chloro-4-hydroxy-3-(2′-hydroxybiphenyl-4-yl)-5-phenyl-6,7-dihydro-thieno[2,3-b]pyridin-6-one], the “activity: Ratio between the % of control (basal activity) of compound of formula (I) at 30 μM and the % of control (basal activity) of AMP at 30 μM” value (“activity: Ratio between the % of control” below) is 138%.
Turning to `O=c1[nH]c2scc(-c3ccc(-c4cccc(F)c4)cc3)c2c(O)c1-c1ccccc1` [Compound 10, 3-(3′-fluorobiphenyl-4-yl)-4-hydroxy-5-phenyl-6,7-dihydro-thieno[2,3-b]pyridin-6-one], the “activity: Ratio between the % of control” value came out at 153%.
On to `O=c1[nH]c2scc(-c3ccc(-c4ccc(O)cc4)cc3)c2c(O)c1-c1ccccc1` [Compound 12, 4-hydroxy-3-(4′-hydroxybiphenyl-4-yl)-5-phenyl-6,7-dihydro-thieno[2,3-b]pyridin-6-one], for which the “activity: Ratio between the % of control” value came out at 139%.
On to `O=c1[nH]c2scc(-c3ccc(-c4ccc(F)cc4)cc3)c2c(O)c1-c1ccccc1` [Compound 13, 3-(4′-fluorobiphenyl-4-yl)-4-hydroxy-5-phenyl-6,7-dihydro-thieno[2,3-b]pyridin-6-one], for which the “activity: Ratio between the % of control” value is listed as 206%.
In the case of `Cc1ccc(-c2ccc(-c3csc4[nH]c(=O)c(-c5ccccc5)c(O)c34)cc2)cc1` [Compound 14, 4-hydroxy-3-(4′-methylbiphenyl-4-yl)-5-phenyl-6,7-dihydro-thieno[2,3-b]pyridin-6-one] it was 176%.
Regarding `O=c1[nH]c2scc(-c3ccc(-c4ccc(C(F)(F)F)cc4)cc3)c2c(O)c1-c1ccccc1` [Compound 16, 4-hydroxy-5-phenyl-3-(4′-trifluoromethylbiphenyl-4-yl)-6,7-dihydro-thieno[2,3-b]pyridin-6-one], the “activity: Ratio between the % of control” value worked out at 101%.
`N#Cc1cccc(-c2ccc(-c3csc4[nH]c(=O)c(-c5ccccc5)c(O)c34)cc2)c1` [Compound 17, 3-(3′-cyanobiphenyl-4-yl)-4-hydroxy-5-phenyl-6,7-dihydro-thieno[2,3-b]pyridin-6-one]: the “activity: Ratio between the % of control” value came out at 116%.
As to `N#Cc1ccc(-c2ccc(-c3csc4[nH]c(=O)c(-c5ccccc5)c(O)c34)cc2)cc1` [Compound 19, 3-(4′-cyanobiphenyl-4-yl)-4-hydroxy-5-phenyl-6,7-dihydro-thieno[2,3-b]pyridin-6-one], the “activity: Ratio between the % of control” value turned out to be 217%.
On to `O=c1[nH]c2scc(-c3ccc(-c4ccc(F)cc4O)cc3)c2c(O)c1-c1ccccc1` [Compound 21, 3-(4′-fluoro-2′-hydroxybiphenyl-4-yl)-4-hydroxy-5-phenyl-6,7-dihydro-thieno[2,3-b]pyridin-6-one], for which the “activity: Ratio between the % of control” value stood at 187%.
With `O=c1[nH]c2scc(-c3ccc(-c4ccc(F)cc4)cc3)c2c(O)c1-c1ccncc1` [Compound 23, 3-(4′-fluorobiphenyl-4-yl)-4-hydroxy-5-pyridin-4-yl-6,7-dihydro-thieno[2,3-b]pyridin-6-one], the “activity: Ratio between the % of control” value worked out at 163%.
Turning to `Cc1ccc(-c2ccc(-c3csc4[nH]c(=O)c(-c5ccncc5)c(O)c34)cc2)cc1` [Compound 24, 4-hydroxy-3-(4′-methylbiphenyl-4-yl)-5-pyridin-4-yl-6,7-dihydro-thieno[2,3-b]pyridin-6-one], the “activity: Ratio between the % of control” value stood at 191%.
Consider `COC(=O)c1ccc(-c2ccc(-c3csc4[nH]c(=O)c(-c5ccncc5)c(O)c34)cc2)cc1` [Compound 25, Methyl 4′-(4-hydroxy-6-oxo-5-pyridin-4-yl-6,7-dihydro-thieno[2,3-b]pyridin-3-yl)biphenyl-4-carboxylate], for which the “activity: Ratio between the % of control” value came to 154%.
As to `O=c1[nH]c2scc(-c3ccc(-c4ccccc4)cc3)c2c(O)c1-c1ccncc1` [Compound 26, 3-biphenyl-4-yl-4-hydroxy-5-pyridin-4-yl-6,7-dihydro-thieno[2,3-b]pyridin-6-one], the “activity: Ratio between the % of control” value was determined as 258%.
On to `O=c1[nH]c2scc(-c3ccc(-c4ccoc4)cc3)c2c(O)c1-c1ccncc1` [Compound 27, 3-[4-(3-furyl)phenyl]-4-hydroxy-5-pyridin-4-yl-6,7-dihydro-thieno[2,3-b]pyridin-6-one], for which the “activity: Ratio between the % of control” value is reported as 199%.
For the compound `O=c1[nH]c2scc(-c3ccc(-c4ccccc4O)cc3)c2c(O)c1-c1ccncc1` [Compound 28, 4-hydroxy-3-(2′-hydroxybiphenyl-4-yl)-5-pyridin-4-yl-6,7-dihydro-thieno[2,3-b]pyridin-6-one], the “activity: Ratio between the % of control” value is on record as 246%.
In the case of `O=c1[nH]c2scc(-c3ccc(-c4ccc(O)cc4)cc3)c2c(O)c1-c1ccncc1` [Compound 29, 4-hydroxy-3-(4′-hydroxybiphenyl-4-yl)-5-pyridin-4-yl-6,7-dihydro-thieno[2,3-b]pyridin-6-one] it was 213%.
With `O=c1[nH]c2scc(-c3ccc(-c4ccncc4)cc3)c2c(O)c1-c1ccncc1` [Compound 30, 4-hydroxy-5-pyridin-4-yl-3-(4-pyridin-4-ylphenyl)-6,7-dihydro-thieno[2,3-b]pyridin-6-one], the “activity: Ratio between the % of control” value amounted to 212%.
For the compound `O=c1[nH]c2scc(-c3ccc(-c4ccccc4O)cc3)c2c(O)c1-c1cccnc1` [Compound 31, 4-hydroxy-3-(2′-hydroxybiphenyl-4-yl)-5-pyridin-3-yl-6,7-dihydro-thieno[2,3-b]pyridin-6-one], the “activity: Ratio between the % of control” value came to 143%.
Turning to `O=c1[nH]c2scc(-c3ccc(-c4ccccc4F)cc3)c2c(O)c1-c1cccnc1` [Compound 32, 3-(2′-fluorobiphenyl-4-yl)-4-hydroxy-5-pyridin-3-yl-6,7-dihydro-thieno[2,3-b]pyridin-6-one], the “activity: Ratio between the % of control” value worked out at 159%.
With `O=c1[nH]c2scc(-c3ccc(-c4cccc(F)c4)cc3)c2c(O)c1-c1cccnc1` [Compound 33, 3-(3′-fluorobiphenyl-4-yl)-4-hydroxy-5-pyridin-3-yl-6,7-dihydro-thieno[2,3-b]pyridin-6-one], the “activity: Ratio between the % of control” value was determined as 147%.
For the compound `O=c1[nH]c2scc(-c3ccc(-c4ccc(F)cc4)cc3)c2c(O)c1-c1cccnc1` [Compound 34, 3-(4′-fluorobiphenyl-4-yl)-4-hydroxy-5-pyridin-3-yl-6,7-dihydro-thieno[2,3-b]pyridin-6-one], the “activity: Ratio between the % of control” value amounted to 165%.
As to `Cc1ccc(-c2ccc(-c3csc4[nH]c(=O)c(-c5cccnc5)c(O)c34)cc2)cc1` [Compound 37, 4-hydroxy-3-(4′-methylbiphenyl-4-yl)-5-pyridin-3-yl-6,7-dihydro-thieno[2,3-b]pyridin-6-one], the “activity: Ratio between the % of control” value was found to be 168%.
As to `O=c1[nH]c2scc(-c3ccc(-c4ccoc4)cc3)c2c(O)c1-c1cccnc1` [Compound 38, 4-hydroxy-3-[4-(3-furyl)phenyl]-5-pyridin-3-yl-6,7-dihydro-thieno[2,3-b]pyridin-6-one], the “activity: Ratio between the % of control” value was found to be 145%.
With `O=c1[nH]c2scc(-c3ccc(-c4cccc(CO)c4)cc3)c2c(O)c1-c1cccnc1` [Compound 39, 4-hydroxy-3-(3′-hydroxymethylbiphenyl-4-yl)-5-pyridin-3-yl-6,7-dihydro-thieno[2,3-b]pyridin-6-one], the “activity: Ratio between the % of control” value stood at 147%.
With `O=c1[nH]c2scc(-c3ccc(-c4cccnc4)cc3)c2c(O)c1-c1cccnc1` [Compound 40, 4-hydroxy-5-pyridin-3-yl-3-(4-pyridin-3-ylphenyl)-6,7-dihydro-thieno[2,3-b]pyridin-6-one], the “activity: Ratio between the % of control” value worked out at 162%.
Turning to `COc1cc(F)ccc1-c1ccc(-c2csc3[nH]c(=O)c(-c4ccccc4)c(O)c23)cc1` [Compound 42, 3-(4′-fluoro-2′-methoxybiphenyl-4-yl)-4-hydroxy-5-phenyl-6,7-dihydro-thieno[2,3-b]pyridin-6-one], the “activity: Ratio between the % of control” value came to 107%.
In the case of `O=c1[nH]c2scc(-c3ccc(-c4ccc(O)cc4O)cc3)c2c(O)c1-c1ccccc1` [Compound 43, 4-hydroxy-3-(2′,4′-dihydroxybiphenyl-4-yl)-5-phenyl-6,7-dihydro-thieno[2,3-b]pyridin-6-one], the “activity: Ratio between the % of control” value is 139%.

These data come from US8604202B2, “Thienopyridone derivatives as AMP-activated protein kinase (AMPK) activators” (Merck Patent GmbH, priority 2008, dated 2013).
